Results as given in PMC5908784, “Extracellular loops 2 and 3 of the calcitonin receptor selectively modify agonist binding and efficacy” (Biochemical Pharmacology, 2018).
Where a chain is given by its changes, count along the chain named. Where a SMILES comes first, the peptide text is derived from it. Bridges are numbered along the chain shown (N, C = ends).

Experiments:
Experiment in all cases: IP1 accumulation
Format in all cases: cell-based
Conditions in all cases: mean ± S.E.M.; for Emax: IP1 maximal response, SEM
[1] = molecular target: T1, hCTR E294A (Homo sapiens, UniProt P30988, E294A)
T1 construct: c-Myc (N); expressed in transfected cells
T1 sequence (P30988 25-474 E294A): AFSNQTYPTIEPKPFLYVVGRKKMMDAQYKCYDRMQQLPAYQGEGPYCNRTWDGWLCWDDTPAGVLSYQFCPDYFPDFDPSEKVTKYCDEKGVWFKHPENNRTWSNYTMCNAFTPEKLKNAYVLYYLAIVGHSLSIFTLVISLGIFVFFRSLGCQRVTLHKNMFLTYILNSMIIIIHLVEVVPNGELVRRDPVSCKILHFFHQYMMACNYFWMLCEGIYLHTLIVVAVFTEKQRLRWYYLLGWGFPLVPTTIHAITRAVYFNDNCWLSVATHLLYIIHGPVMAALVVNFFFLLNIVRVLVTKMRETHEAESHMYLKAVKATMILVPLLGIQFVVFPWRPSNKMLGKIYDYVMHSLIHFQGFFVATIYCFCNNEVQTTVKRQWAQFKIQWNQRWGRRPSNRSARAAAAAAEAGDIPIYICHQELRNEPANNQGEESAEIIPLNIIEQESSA
Protocol: (§1) Cells (2.5 × 10^4 cells/well) were plated into 96 well trays and cultured overnight. Cells were stimulated with increasing concentration of ligands for 60 min in the presence of LiCl. Samples were lysed and endogenous IP1 was measured using an IP-One HTRF® assay kit (CisBio) as specified by the manufacturer. Data were normalized to the maximal response elicited by 100 μM of ATP.
(§2) Data were corrected for radioligand occupancy using the Cheng-Prusoff equation in Prism; as such data are reported as pKi. Emax and EC50 were estimated from concentration-response curves using with a 3-parameter logistic equation in Prism (v7). These values are a composite of functional affinity, efficacy and stimulus response coupling. […] Significance was accepted at P < 0.05.

[2] = molecular target: T2, hCTR F285A (Homo sapiens, UniProt P30988, F285A)
T2 construct: expressed in transfected cells
T2 sequence (P30988 25-474 F285A): T1 sequence (P30988 25-474 E294A) with F261A, A270E
Protocol: as §1, §2

[3] = molecular target: T3, hCTR G369A (Homo sapiens, UniProt P30988, G369A)
T3 construct: c-Myc (N); expressed in transfected cells
T3 sequence (P30988 25-474 G369A): T1 sequence (P30988 25-474 E294A) with A270E, G345A
Protocol: as §1, §2

[4] = molecular target: T4, hCTR R281A (Homo sapiens, UniProt P30988, R281A)
T4 construct: expressed in transfected cells
T4 sequence (P30988 25-474 R281A): T1 sequence (P30988 25-474 E294A) with R257A, A270E
Protocol: as §1, §2

[5] = molecular target: T5, hCTR V293A (Homo sapiens, UniProt P30988, V293A)
T5 construct: c-Myc (N); expressed in transfected cells
T5 sequence (P30988 25-474 V293A): T1 sequence (P30988 25-474 E294A) with V269A, A270E
Protocol: as §1, §2

[6] = IP1, CV1-FlpIn cells, 60 min, LiCl

Compound	Emax [1]	Emax [2]	Emax [3]	Emax [4]	Emax [5]	EC50 [1, 6]	EC50 [2, 6]	EC50 [3, 6]	EC50 [4, 6]	EC50 [5, 6]
CC[C@H](C)[C@H](NC(=O)[C@H](C)NC(=O)[C@@H](NC(=O)[C@H](CCC(N)=O)NC(=O)[C@@H]1CCCN1C(=O)[C@H](Cc1ccccc1)NC(=O)[C@@H](NC(=O)[C@H](Cc1c[nH]cn1)NC(=O)[C@H](Cc1ccccc1)NC(=O)[C@H](CCCCN)NC(=O)[C@H](CC(N)=O)NC(=O)[C@H](Cc1ccccc1)NC(=O)[C@H](CC(=O)O)NC(=O)[C@H](CCC(N)=O)NC(=O)[C@@H](NC(=O)[C@H](Cc1ccc(O)cc1)NC(=O)[C@@H](NC(=O)CNC(=O)[C@H](CC(C)C)NC(=O)[C@H](CCSC)NC(=O)[C@@H]1CSSC[C@H](N)C(=O)NCC(=O)N[C@@H](CC(N)=O)C(=O)N[C@@H](CC(C)C)C(=O)N[C@@H](CO)C(=O)N[C@@H]([C@@H](C)O)C(=O)N1)[C@@H](C)O)[C@@H](C)O)[C@@H](C)O)[C@@H](C)O)C(=O)NCC(=O)N[C@H](C(=O)NCC(=O)N[C@@H](C)C(=O)N1CCC[C@H]1C(N)=O)C(C)C [hCT]	57 ± 6%	58 ± 6%	148 ± 10%	30 ± 4%	87 ± 4%	–	–	–	–	–
CSCC[C@H](NC(=O)CNC(=O)[C@H](CO)NC(=O)[C@H](Cc1ccccc1)NC(=O)[C@H](CCCNC(=N)N)NC(=O)[C@H](Cc1c[nH]cn1)NC(=O)[C@H](Cc1ccccc1)NC(=O)[C@H](CC(N)=O)NC(=O)[C@H](CC(N)=O)NC(=O)[C@H](CC(C)C)NC(=O)[C@H](CC(N)=O)NC(=O)[C@H](CCCNC(=N)N)NC(=O)[C@H](Cc1c[nH]c2ccccc12)NC(=O)[C@H](Cc1ccc(O)cc1)NC(=O)[C@H](C)NC(=O)[C@H](CO)NC(=O)[C@H](CC(C)C)NC(=O)[C@@H](NC(=O)[C@@H]1CSSC[C@H](N)C(=O)N[C@@H](CO)C(=O)N[C@@H](CC(N)=O)C(=O)N[C@@H](CC(C)C)C(=O)N[C@@H](CO)C(=O)N[C@@H]([C@@H](C)O)C(=O)N1)C(C)C)C(=O)NCC(=O)N[C@@H](Cc1ccccc1)C(=O)NCC(=O)N1CCC[C@H]1C(=O)N[C@@H](CCC(=O)O)C(=O)N[C@H](C(=O)N1CCC[C@H]1C(N)=O)[C@@H](C)O [pCT] (H-CSNLSTCVLSAYWRNLNNFHRFSGMGFGPETP-NH2; disulfide 1-7)	119 ± 8%	112 ± 13%	110 ± 6%	52 ± 4%	112 ± 10%	1.29 nM	5.01 nM	7.59 nM	2.24 nM	3.24 nM
CC(C)C[C@H](NC(=O)[C@H](CCCCN)NC(=O)CNC(=O)[C@H](CC(C)C)NC(=O)[C@@H](NC(=O)[C@@H]1CSSC[C@H](N)C(=O)N[C@@H](CO)C(=O)N[C@@H](CC(N)=O)C(=O)N[C@@H](CC(C)C)C(=O)N[C@@H](CO)C(=O)N[C@@H]([C@@H](C)O)C(=O)N1)C(C)C)C(=O)N[C@@H](CO)C(=O)N[C@@H](CCC(N)=O)C(=O)N[C@@H](CCC(=O)O)C(=O)N[C@@H](CC(C)C)C(=O)N[C@@H](Cc1c[nH]cn1)C(=O)N[C@@H](CCCCN)C(=O)N[C@@H](CC(C)C)C(=O)N[C@@H](CCC(N)=O)C(=O)N[C@H](C(=O)N[C@@H](Cc1ccc(O)cc1)C(=O)N1CCC[C@H]1C(=O)N[C@@H](CCCNC(=N)N)C(=O)N[C@H](C(=O)N[C@@H](CC(N)=O)C(=O)N[C@H](C(=O)NCC(=O)N[C@@H](CO)C(=O)NCC(=O)N[C@H](C(=O)N1CCC[C@H]1C(N)=O)[C@@H](C)O)[C@@H](C)O)[C@@H](C)O)[C@@H](C)O [sCT]	84 ± 5%	114 ± 6%	97 ± 7%	91 ± 6%	109 ± 7%	–	–	–	–	–
